# Results reported in PubChem BioAssay AID2060912 (Molecular Pharmacology Branch, DTP, NCI, 2025).
# Tested on: HUVEC/MSC spheroids viability
# Experiment: Human HUVEC/MSC cell line growth inhibition [KRAS2];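 for viability, T/C: percent of DMSO vehicle control luminescence so 100% = untreated viability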
# Conditions: for IC50: curve of first compound; for viability, T/C: stronger effect = lower value
# Outline: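 The concentration series started at or near clinical Cmax (10 microM if not known) and fell in half-log increments, alone or in combination. Cells were stromal-only spheroids of pooled-donor HUVEC and hMSC (passage </=5), with different drug plates and layout from the tumor spheroid screens.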
smiles,measurement,setting,value
Cn1nccc1Nc1nccc(-c2cc3c(s2)C(C)(C)N(CCN2CCOCC2)C3=O)n1 + CC1OCC2(CCN(c3cnc(Sc4ccnc(N)c4Cl)c(N)n3)CC2)C1N,IC50,second compound 0.0316 µM,2080 nM
same,IC50,second compound 0.1 µM,2730 nM
same,IC50,second compound 0.316 µM,2530 nM
same,IC50,second compound 1 µM,1740 nM
same,IC50,second compound 3.16 µM,1350 nM
same,IC50,second compound 10 µM,430 nM
same,"viability, T/C","second compound 0.0316 µM, first compound 0.0316 µM",105%
same,"viability, T/C","second compound 0.0316 µM, first compound 0.1 µM",127%
same,"viability, T/C","second compound 0.0316 µM, first compound 0.316 µM",108%
same,"viability, T/C","second compound 0.0316 µM, first compound 1 µM",78%
same,"viability, T/C","second compound 0.0316 µM, first compound 3.16 µM",34.5%
same,"viability, T/C","second compound 0.0316 µM, first compound 10 µM",7.19%
same,"viability, T/C","second compound 0.1 µM, first compound 0.0316 µM",117%
same,"viability, T/C","second compound 0.1 µM, first compound 0.1 µM",127%
same,"viability, T/C","second compound 0.1 µM, first compound 0.316 µM",124%
same,"viability, T/C","second compound 0.1 µM, first compound 1 µM",96.3%
same,"viability, T/C","second compound 0.1 µM, first compound 3.16 µM",43.8%
same,"viability, T/C","second compound 0.1 µM, first compound 10 µM",6.82%
same,"viability, T/C","second compound 0.316 µM, first compound 0.0316 µM",112%
same,"viability, T/C","second compound 0.316 µM, first compound 0.1 µM",120%
same,"viability, T/C","second compound 0.316 µM, first compound 0.316 µM",105%
same,"viability, T/C","second compound 0.316 µM, first compound 1 µM",78.8%
same,"viability, T/C","second compound 0.316 µM, first compound 3.16 µM",44.2%
same,"viability, T/C","second compound 0.316 µM, first compound 10 µM",5.45%
same,"viability, T/C","second compound 1 µM, first compound 0.0316 µM",95.9%
same,"viability, T/C","second compound 1 µM, first compound 0.1 µM",97.6%
same,"viability, T/C","second compound 1 µM, first compound 0.316 µM",107%
same,"viability, T/C","second compound 1 µM, first compound 1 µM",60.7%
same,"viability, T/C","second compound 1 µM, first compound 3.16 µM",34.6%
same,"viability, T/C","second compound 1 µM, first compound 10 µM",4.73%
same,"viability, T/C","second compound 3.16 µM, first compound 0.0316 µM",79.7%
same,"viability, T/C","second compound 3.16 µM, first compound 0.1 µM",90.2%
same,"viability, T/C","second compound 3.16 µM, first compound 0.316 µM",80.3%
same,"viability, T/C","second compound 3.16 µM, first compound 1 µM",57.7%
same,"viability, T/C","second compound 3.16 µM, first compound 3.16 µM",25.5%
same,"viability, T/C","second compound 3.16 µM, first compound 10 µM",8.64%
same,"viability, T/C","second compound 10 µM, first compound 0.0316 µM",73%
same,"viability, T/C","second compound 10 µM, first compound 0.1 µM",67.4%
same,"viability, T/C","second compound 10 µM, first compound 0.316 µM",56.1%
same,"viability, T/C","second compound 10 µM, first compound 1 µM",34.2%
same,"viability, T/C","second compound 10 µM, first compound 3.16 µM",21.5%
same,"viability, T/C","second compound 10 µM, first compound 10 µM",4.23%
